The source of these data is patent publication US20250019503A1, “METAL COMPLEXED CYANURATE GERMICIDAL ADDITIVE FOR POLYMER COMPOSITIONS” (SABIC Global Technologies B.V., priority 2022, published 2025).

With `O=c1[n-]c(=O)n(Cl)c(=O)n1Cl.O=c1[n-]c(=O)n(Cl)c(=O)n1Cl.O=c1[n-]c(=O)n(Cl)c(=O)n1Cl.O=c1[n-]c(=O)n(Cl)c(=O)n1Cl.[Cu+2].[Na+].[Na+]` [CuDCC, Copper Dichlorocyanurate], the hygroscopicity entry (based on lack of mass loss between 55° C. to 133° C.) was “not hydroscopic”.
As for `O=c1nc([O-])n(Cl)c(=O)n1Cl.[Na+]` [NaDCC, sodium dichlorocyanurate], the “most extensive mass loss” value (at 240° C. to 300° C., attributed to pyrolysis/oxidations) is reported as ~40%. Moreover, the mass loss result (between 55° C. to 100° C., nitrogen and air, attributed to absorbed water) is “around 7%”.
